# According to US20160263131A1, “TREATMENT OF HEPATIC FIBROSIS USING AN INHIBITOR OF CBP/CATENIN” (priority 2013, published 2016):
# Key:
# [1] = Body weight and general condition of NASH mice; conditions: mouse, in vivo
# Protocol: (§1) The viability, clinical signs and behavior were monitored daily. Body weight was recorded daily before drug administration. […] The animals were sacrificed by exsanguination through direct cardiac puncture under ether anesthesia (Wako Pure Chemical Industries).
# [2] = test system: α-SMA; experiment: Quantitative RT-PCR of liver, α-SMA mRNA, NASH mice; type: in vivo, C57BL/6J mice; conditions: 10 mg/kg oral QD 9-12 wks, 12 weeks of age, mean ± SD, n = 8, Normal 1.00 ± 0.60, Disease-control 2.43 ± 1.33, no significant difference, 10 mg/kg
# Protocol: (§2) Total RNA was extracted from liver samples using RNAiso (Takara Bio, Japan) according to the manufacturer's instructions. One μg of RNA was reverse-transcribed using a reaction mixture containing 4.4 mM MgCl2 (Roche, Switzerland), 40 U RNase inhibitor (Toyobo, Japan), 0.5 mM dNTP (Promega, USA), 6.28 μM random hexamer (Promega), 5× first strand buffer (Promega), 10 mM dithiothreitol (Invitrogen, USA) and 200 U MMLV-RT (Invitrogen) in a final volume of 20 μL. The reaction was carried out for 1 hour at 37° C., followed by 5 minutes at 99° C. Real-time PCR was performed using real-time PCR DICE and SYBR premix Taq (Takara Bio). To calculate the relative mRNA expression level, the expression of each gene was normalized to that of reference gene 36B4 (gene symbol: Rplp0). Information of PCR-primer sets and the plate layout was described in Table 1.
# [3] = test system: TIMP-1; experiment: Quantitative RT-PCR of liver, TIMP-1 mRNA, NASH mice; type: in vivo, C57BL/6J mice; conditions: 10 mg/kg oral QD 9-12 wks, 12 weeks of age, mean ± SD, n = 8, Normal 1.00 ± 0.25, Disease-control 7.04 ± 2.13, tended to be down-regulated, 10 mg/kg
# Protocol: as §2
# [4] = test system: Collagen Type 3; experiment: Quantitative RT-PCR of liver, Collagen Type 3 mRNA, NASH mice; type: in vivo, C57BL/6J mice; conditions: 10 mg/kg oral QD 9-12 wks, 12 weeks of age, mean ± SD, n = 8, Normal 1.00 ± 0.16, Disease-control 2.27 ± 0.35, tended to be down-regulated, 10 mg/kg
# Protocol: as §2
# [5] = test system: NASH mice; experiment: Serum TG in NASH mice; type: in vivo, C57BL/6J mice; conditions: 10 mg/kg oral QD 9-12 wks, mean±SD, Disease-control 558±256, no significant difference
# Protocol: (§3) Non-fasting blood glucose was measured in whole blood using Life Check (EIDIA, Japan). For serum biochemistry, blood was collected in polypropylene tubes without anticoagulant and kept at room temperature for 30 minutes, followed by at 4° C. for 1 hour. The blood samples were then centrifuged at 1,000×g for 15 minutes at 4° C. The supernatant was collected and stored at −80° C. until use. Serum ALT and TG levels were measured by FUJI DRI-CHEM 7000 (Fujifilm, Japan).
# [6] = test system: NASH mice; experiment: Liver weight and liver-to-body weight ratio in NASH mice; type: in vivo, C57BL/6J mice; conditions: 10 mg/kg oral QD 9-12 wks, mean±SD
# Protocol: as §1
# [7] = test system: NASH mice; experiment: Liver hydroxyproline content in NASH mice; type: in vivo, C57BL/6J mice; conditions: μg per mg total protein, 10 mg/kg oral QD 9-12 wks, mean±SD, Disease-control 1.09±0.42, no significant difference
# Protocol: To quantify liver hydroxyproline content, frozen liver samples (35-45 mg) were processed by an alkaline-acid hydrolysis method as follows: the livers were defatted with 100% acetone, dried in the air, dissolved in 2N NaOH at 65° C., and autoclaved at 121° C. for 20 minutes. The lysed samples (400 μL) were acid-hydrolyzed with 400 μL of 6N HCl at 121° C. for 20 minutes, and neutralized with 400 μL of 4N NaOH containing 10 mg/mL activated carbon. AC buffer (2.2M acetic acid/0.48M citric acid, 400 μL) was added to the samples, followed by centrifugation to collect the supernatant. To construct a standard curve of hydroxyproline, serial dilutions of trans-4-hydroxy-Lproline (Sigma-Aldrich) were prepared starting at 16 μg/mL. The prepared samples and standards (each 400 μL) were mixed with 400 μL chloramine T solution (Wako Pure Chemical Industries, Japan) and incubated for 25 minutes at room temperature. The samples were then mixed with Ehrlich's solution (400 μL) and heated at 65° C. for 20 minutes to develop the color. After samples were cooled on ice and centrifuged to remove precipitates, the optical density of each supernatant was measured at 560 nm. The concentrations of hydroxyproline were calculated from the hydroxyproline standard curve. Protein concentrations of liver samples were determined using a BCA protein assay kit (Thermo Fisher Scientific, USA) and used to normalize the calculated hydroxyproline values. Hydroxyproline levels were expressed as μg per mg total protein.
# [8] = test system: NASH mice; experiment: Sirius red staining, fibrosis area in liver of NASH mice; type: in vivo, C57BL/6J mice; conditions: NASH mice, 10 mg/kg oral QD 9-12 wks, 12 weeks of age, mean ± SD, n = 8; Disease-control 1.09 ± 0.27; significantly decreased; 10 mg/kg
# Protocol: C57BL/6J mice (15-day pregnant female) were obtained from Charles River Laboratories Japan (Kanagawa, Japan). All animals used in this study were housed and cared for in accordance with the Japanese Pharmacological Society Guidelines for Animal Use. The animals were maintained in a SPF facility under controlled conditions of temperature (23±2° C.), humidity (45±10%), lighting (12-hour artificial light and dark cycles; light from 8:00 to 20:00) and air exchange. A high pressure (20±4 Pa) was maintained in the experimental room to prevent contamination of the facility. The animals were housed in polycarbonate cages KN-600 (Natsume Seisakusho, Japan) with a maximum of 4 mice per cage. Sterilized PULMASμ (Material Research Center, Japan) was used for bedding and replaced once a week. Sterilized solid HFD was provided ad libitum, being placed in the metal lid on top of the cage. Pure water was provided ad libitum from a water bottle equipped with a rubber stopper and a sipper tube. Water bottles were replaced once a week, cleaned and sterilized in autoclave and reused. Mice were identified by numbers engraved on earrings. Each cage was labeled with a specific identification code.
# [9] = test system: NASH mice; experiment: Liver TG content in NASH mice; type: in vivo, C57BL/6J mice; conditions: 10 mg/kg oral QD 9-12 wks, mean±SD, Disease-control 67.7±17.7, significant decrease
# Protocol: Liver total lipid-extracts were obtained from right lobes by Folch's method (Folch J. et al, J. Biol. Chem. 1957; 226 (1): 497). The livers were homogenized in chloroform-methanol (2:1, v/v) and incubated overnight at room temperature. After washing with chloroform-methanol-water (8:4:3, v/v/v), the extracts were evaporated to dryness, and dissolved in isopropanol. Liver TG levels were measured by Triglyceride E-test (Wako Pure Chemical Industries). Extracts were diluted 2- to 4-fold in isopropanol when the TG contents exceed the limit of detection.
# [10] = test system: NASH mice; experiment: Serum ALT in NASH mice; type: in vivo, C57BL/6J mice; conditions: 10 mg/kg oral QD 9-12 wks, mean±SD, Disease-control 38±8, no significant difference
# Protocol: as §3
# [11] = test system: NASH mice; experiment: Whole blood glucose in NASH mice; type: in vivo, C57BL/6J mice; conditions: 10 mg/kg oral QD 9-12 wks, mean±SD, Disease-control 682±63, significantly increased
# Protocol: as §3
# [12] = test system: NASH mice; experiment: HE staining and NAFLD Activity score in NASH mice; conditions: 10 mg/kg oral QD 9-12 wks, compared with Disease-control group
# Protocol: NASH was induced in 40 male mice by a single subcutaneous injection of 200 μg streptozotocin (Sigma-Aldrich, USA) 2 days after birth and feeding with high fat diet (HFD, 57 kcal % fat, cat# HFD32, CLEA Japan, Japan) after 4 weeks of age. The mice were randomized into 5 groups of 8 mice at 9 weeks of age. Eight male littermates, fed with normal diet (cat# CE-2, CLEA Japan) without streptozotocin treatment, were used for the Normal group.
# The test substance solution was filled in the osmotic pumps at concentrations determined based on the individual body weight at the start of treatment (day 0). Telmisartan was administered by oral route in a volume of 10 mL/kg body weight.
# Telmisartan was administered once daily at a dose of 10 mg/kg body weight.
# For HE staining, sections were cut from paraffin blocks of liver tissue prefixed in Bouin's solution and stained with Lillie-Mayer's Hematoxylin (Muto Pure Chemicals, Japan) and eosin solution (Wako Pure Chemical Industries).
smiles,measurement,setting,value
"CCCc1nc2c(C)cc(-c3nc4ccccc4n3C)cc2n1Cc1ccc(-c2ccccc2C(=O)O)cc1 [Telmisartan, reference compound]",General condition,[1],No deterioration
same,"α-SMA mRNA expression level (relative, normalized to 36B4)",[2],1.83±0.36
same,"TIMP-1 mRNA expression level (relative, normalized to 36B4)",[3],4.10±1.18
same,"Collagen Type 3 mRNA expression level (relative, normalized to 36B4)",[4],1.73±0.33
same,Serum TG,[5],843 ± 609 mg/dL
same,Liver-to-body weight ratio,"[6]; Disease-control 8.1±0.6, significant decrease",6.9±0.7%
same,Mean liver weight,"[6]; Disease-control 1867±183, significant decrease",1376 ± 80 mg
same,Liver hydroxyproline content,[7],0.95 ± 0.25 µg/mg
same,Sirius red-positive area (fibrosis area),[8],0.50±0.10%
same,Liver TG content,[9],30.6 ± 5.6 mg/g
same,Serum ALT,[10],35±6 U/L
same,Whole blood glucose (non-fasting),[11],880 ± 39 mg/dL
same,"HE-stained liver sections: fat deposition, hepatocellular ballooning and inflammatory cell infiltration",[12],marked improvements
